Key:
[1] = system: HCE cells; assay: MTT assay in hyperosmotic media with diclofenac, NaCl and/or PGE2 (Example 3); type: cell-based, Human; conditions: 150 mM NaCl, 24 hours
Description: HCE cells were incubated in hyperosmotic media containing diclofenac, 150 mM NaCl, and/or PGE2 for 24 hours. The number of viable cells was measured by MTT assay, and the absorbance data were expressed as relative values to that of the control (under isotonic conditions).
The same procedure as in Example 3 was followed, except that bromfenac was used in place of diclofenac.

[2] = system: NFAT5; assay: NFAT5 expression and nuclear translocation by immunoblotting (Example 4); type: cell-based, Human; conditions: HCE cells, 150 mM NaCl, six hours or one hour
Description: HCE cells were incubated in hyperosmotic media containing diclofenac and 150 mM NaCl for six hours (FIG. 4A and FIG. 4C) or for one hour (FIG. 4B). Each whole cell homogenate (FIG. 4A and FIG. 4B) or nuclear extract (FIG. 4B) was analyzed by immunoblotting using an anti-NFAT5, anti-actin, or anti-lamin B antibody. The intensity of the NFAT5 band was measured and expressed as relative values to that of the control (under isotonic conditions without diclofenac) (FIG. 4A and FIG. 4B). The relative bgt1 mRNA expression level was measured by real-time RT-PCR, and the values normalized by the actin expression level are expressed as relative values to that of the control (under isotonic conditions without diclofenac) (FIG. 4C). The values are represented as average±S.D. (n=3), with a single asterisk (*) indicating P<0.05 and a double asterisk (**) indicating P<0.01. The same procedure as in Example 4 was followed, except that bromfenac was used in place of diclofenac.

[3] = system: corneal surface disorders in the dry eye model; assay: Rat dry eye model, fluorescein score after four weeks of administration (Example 10); type: in vivo; conditions: lacrimal gland removed, ophthalmic solution 5 μl, 0.05% (1.55 mM), three times a day
Description: The lacrimal gland of a rat was removed to prepare a dry eye model. One week after the lacrimal gland removal, an ophthalmic solution (5 μl) containing diclofenac (0.05%, 1.55 mM; or 0.1%, 3.1 mM) was administered three times a day. After four weeks from the start of the administration, the tears were subjected to fluorescein staining, and the fluorescein score was calculated. The same procedure as in Example 10 was followed, except that a buffer was used (Vehicle) in place of diclofenac.

[4] = system: PGE2; assay: Amount of PGE2 induced by arachidonic acid, measured by EIA (Example 3); type: cell-based, Human; conditions: HCE cells, 30 minutes pre-incubation, 10 μM arachidonic acid
Description: Separately, HCE cells were pre-incubated in media containing diclofenac for 30 minutes, and then incubated in media containing 10 μM arachidonic acid and diclofenac. The arachidonic acid was added to induce PGE2. The amount of PGE2 contained in each culture was measured by EIA. The values are represented as average±S.D. (n=3), with a single asterisk (*) indicating P<0.05 and a double asterisk (**) indicating P<0.01. The same procedure as in Example 3 was followed, except that bromfenac was used in place of diclofenac.

[5] = system: Human corneal epithelial cells (HCE cells); assay: MTT assay of viable cells under hyperosmotic conditions (Example 1); type: cell-based; conditions: 150 mM NaCl, 280 mM glucose or 280 mM sorbitol, compared with other NSAIDs
Description: Human corneal epithelial cells (HCE cells) were incubated in hyperosmotic media containing diclofenac. The hyperosmotic conditions of each medium were created by 150 mM NaCl, 280 mM glucose, or 280 mM sorbitol. The number of viable cells was measured by MTT assay, and the absorbance was calculated relative to the control (under isotonic conditions). The values are represented as average±S.D. (n=3), with a single asterisk (*) indicating P<0.05 and a double asterisk (**) indicating P<0.01.
The same procedure as in Example 1 was followed, except that other nonsteroidal anti-inflammatory drugs (NSAIDs) were used in place of diclofenac.

[6] = system: corneal surface disorders in the dry eye model; assay: Rat dry eye model by lacrimal gland removal (Example 5); type: in vivo; conditions: lacrimal gland removed, ophthalmic solution 5 μl, 0.1% (3.1 mM), three times a day, fluorescein score, TUNEL
Description: The lacrimal gland of a rat was removed to prepare a dry eye model. One to five weeks after the lacrimal gland removal, an ophthalmic solution (5 μl) containing diclofenac (0.1%, 3.1 mM) was administered three times a day. The amount of tears was measured by the cotton thread test. Five weeks after the lacrimal gland removal, ocular tissue sections were prepared and subjected to TUNEL assay and DAPI staining. The values are represented as average±S.E.M., with a single asterisk (*) indicating P<0.01 and n.s. meaning “not significant”. The same procedure as in Example 5 was followed, except that bromfenac was used in place of diclofenac.

[7] = system: HCE cells; assay: Caspase-3-like activity under hyperosmotic conditions (Example 2); type: cell-based, Human; conditions: 150 mM NaCl, six hours of incubation
Description: (§1) HCE cells were incubated in hyperosmotic media containing diclofenac and 150 mM NaCl. After six hours of incubation, the caspase-3-like activity was measured using a fluorescent peptide substrate. Furthermore, after 12 hours of incubation, cell proliferation was assessed by BrdU incorporation assay, and the absorbance data were expressed as relative values to that of the control (under isotonic conditions). The values are represented as average±S.D. (n=3), with a single asterisk (*) indicating P<0.05 and a double asterisk (**) indicating P<0.01. The same procedure as in Example 2 was followed, except that bromfenac was used in place of diclofenac.

[8] = system: HCE cells; assay: Cell proliferation by BrdU incorporation assay under hyperosmotic conditions (Example 2); type: cell-based, Human; conditions: 150 mM NaCl, 12 hours of incubation
Description: as §1

| Compound | number of viable cells with PGE2 (MTT) ([1]; hyperosmotic media) | expression and nuclear translocation of NFAT5 [2] | corneal surface disorders in the dry eye model (fluorescein score) [3] | concentration required to reduce PGE2 [4] | concentration required to reduce cytotoxicity caused by hyperosmolarity ([1]; MTT) | reducing cytotoxicity under hyperosmotic conditions (number of viable cells, MTT) [5] | effect of treating corneal surface disorders in the dry eye model [6] | inhibiting apoptosis under hyperosmotic conditions (caspase-3-like activity) [7] | cell proliferative effect (BrdU incorporation) [8] |
| --- | --- | --- | --- | --- | --- | --- | --- | --- | --- |
| CCCCC[C@H](O)/C=C/[C@H]1[C@H](O)CC(=O)[C@@H]1C/C=C\CCCC(=O)O [PGE2, prostaglandin E2] | did not change | – | – | – | – | – | – | – | – |
| O=C(O)Cc1ccccc1Nc1c(Cl)cccc1Cl [diclofenac] | – | enhancing the expression and nuclear translocation of NFAT5 | treatable | 0.1 nM | 100 nM | highly effective in reducing cytotoxicity under hyperosmotic conditions | exhibited the effect of treating corneal surface disorders | effective in inhibiting apoptosis under hyperosmotic conditions | exhibited a cell proliferative effect |

From patent publication US20190365685A1, “EYE DROPS FOR TREATING DRY EYE” (LTT BIO-PHARMA CO., LTD., priority 2013, published 2019)
